# Measurements taken from US10800741B2 (ANCUREALL PHARMACEUTICAL (SHANGHAI) CO., LTD., priority 2017, dated 2020).
# How the values were obtained:
# [1] = test system: human intestinal cancer cell line HCT116 (KRAS G13D mutation); assay: Growth inhibition in combination with MEK1/2 inhibitor Trametinib, HCT116 (KRAS G13D mutation); type: cell-based; conditions: 5 days
# Protocol: (§1) Test Example 5 Synergistic Inhibition Effect of the Present Compounds in Combination with MEK1/2 Inhibitor on the Growth of RAS Mutant Tumor Cells In Vitro
# (§2) The cell culture, drug treatment and MTT assay of human intestinal cancer cell line HCT116 (KRAS G13D mutation) and human non-small cell lung cancer cell line NCI-H1299 (NRAS Q61K mutation) were performed according to the method of test example 1. Cells were treated with the MEK1/2 inhibitor Trametinib at 25 nM, 2.5 nM and 0.25 nM alone or in combination with compound 66 or 125 of the present invention (5 days).
# [2] = test system: human non-small cell lung cancer cell line NCI-H1299 (NRAS Q61K mutation); assay: Growth inhibition in combination with MEK1/2 inhibitor Trametinib, NCI-H1299 (NRAS Q61K mutation); type: cell-based; conditions: 5 days
# Protocol: as §1, §2
# NCI-H1581 = NCI-H1581 subcutaneous transplantation tumor model, tumor growth inhibition in vivo; design: species or system Bab/c immunodeficient mice; conditions: 17th day after the administration
# Excerpt: (§3) Test Example 7 Inhibition of Tumour Cell Growth In Vivo
# (§4) In order to establish subcutaneous transplantation tumor models of human non-small cell lung cancer and endometrial adenocarcinoma, Bab/c immunodeficient mice were subcutaneously inoculated with NCI-H1581 (ATCC) and AN3-CA (ATCC) cells, respectively.
# (§5) Experimental animals: 6-week female Bab/c immunodeficient mice (about 20 g in weight). The mice were purchased from Shanghai Sippr-BK Experimental Animal Co., Ltd., raised in Animal Center of Shanghai University of Traditional Chinese Medicine, approved by Ethical Committee of Shanghai University of Traditional Chinese Medicine. The breeding environment was SPF grade.
# Test samples: the present compounds 66 (purity: 99%), solid powder, stored at 4˜8° C.
# Cells and animal models: NCI-H1581 cells were cultured in RPMI 1640 medium containing 10% fetal bovine serum. Log-phase NCI-H1581 cells were collected and re-suspended with PBS to 2.5×10^7 cells per ml for subcutaneous single-point inoculation of Bab/c immunodeficient mice at the right side of the back of mouse (5×10^6 cells, 0.2 ml).
# When the tumor volume reached 100˜200 mm^3, the mice were randomly divided according to tumor size. The experiment was divided into solvent control group and drug administration group (compound 66 group). 6 mice in each group were administered 0.1 ml per 10 g body weight by intraperitoneal injection (i.p) once a day. The tumor was measured three times a week, and the tumor volume was calculated as: long diameter×short diameter^2/2. When the average tumor volume of the control group reached 2000 mm^3, the experiment was over and then the tumor was weighed and subjected to molecular pathology assay. Efficacy was assessed based on relative tumor growth inhibition value (TGI), and safety was assessed based on animal weight change.
# Preparation of test samples: appropriate amount of compound 66 was weighed and mixed with ultrapure water; and methanesulfonic acid was added for clarification; and then 4M NaOH was added to adjust the PH to 3.8; and a final volume was made up with ultrapure water. The final concentrations were 0.5 mg/ml and 0.25 mg/ml, respectively.
# T/C % refers to the relative tumor growth rate, that is, the percentage of relative tumor volume or tumor weight of the administration group and the control group at a certain time point. […]
# (§6) Tumor volume data of 17 days after the start of administration were selected for statistical analysis among different groups, and independent sample T test was used to compare whether there were significant differences in relative tumor volume between the administration group and the control group. All data were analyzed using SPSS 18.0. […]
# AN3-CA = AN3-CA subcutaneous transplantation tumor model, tumor growth inhibition in vivo; design: species or system Bab/c immunodeficient mice; conditions: 5 mg/kg i.p once a day, 17th day after the administration
# Excerpt: as §3, §4
# as §5, with “grade. […]” for “grade.”
# When the tumor volume reached 100˜200 mm^3, the mice were randomly divided according to tumor size. […] The tumor was measured three times a week, and the tumor volume was calculated as: long diameter×short diameter^2/2. […] Efficacy was assessed based on relative tumor growth inhibition value (TGI), and safety was assessed based on animal weight change. […]
# as §6
# [3] = compound 7.8 nM + Trametinib 0.25 nM
# [4] = compound 7.8 nM + Trametinib 2.5 nM
# [5] = compound 7.8 nM + Trametinib 25 nM
# [6] = compound 15.6 nM + Trametinib 0.25 nM
# [7] = compound 15.6 nM + Trametinib 2.5 nM
# [8] = compound 15.6 nM + Trametinib 25 nM
smiles,measurement,setting,value
"COCCOc1cc2nccc(Oc3ccc(NC(=O)Nc4cc(C(C)(C)C)n[nH]4)c(Cl)c3)c2cc1NC(C)=O [Compound 66, N-[4-{4-[3-(5-tert-butyl-2H-pyrazol-3-yl)-ureido]-3-chloro-phenoxy}-7-(2-methoxy-ethoxy)-quinolin-6-yl]-acetamide]",inhibition at 0.0078 µM,"[1]; Homo sapiens, HCT-116, 120 h, compound 7.8 nM alone (solvent instead of Trametinib), read-out: cell growth inhibition (percentage)",7.67%
same,inhibition at 0.0156 µM,"[1]; Homo sapiens, HCT-116, 120 h, compound 15.6 nM alone (solvent instead of Trametinib), read-out: cell growth inhibition (percentage)",22%
same,cell growth inhibition (percentage),[1]; [3],62.24%
same,cell growth inhibition (percentage),[1]; [4],73.79%
same,cell growth inhibition (percentage),[1]; [5],80.52%
same,cell growth inhibition (percentage),[1]; [6],66.72%
same,cell growth inhibition (percentage),[1]; [7],77.07%
same,cell growth inhibition (percentage),[1]; [8],81.03%
same,inhibition at 0.0078 µM,"[2]; Homo sapiens, NCI-H1299, 120 h, compound 7.8 nM alone (solvent instead of Trametinib), read-out: cell growth inhibition (percentage)",1.39%
same,inhibition at 0.0156 µM,"[2]; Homo sapiens, NCI-H1299, 120 h, compound 15.6 nM alone (solvent instead of Trametinib), read-out: cell growth inhibition (percentage)",4.59%
same,cell growth inhibition (percentage),[2]; [3],11.67%
same,cell growth inhibition (percentage),[2]; [4],20.73%
same,cell growth inhibition (percentage),[2]; [5],37.88%
same,cell growth inhibition (percentage),[2]; [6],16.82%
same,cell growth inhibition (percentage),[2]; [7],26.10%
same,cell growth inhibition (percentage),[2]; [8],42.52%
same,T/C (%),NCI-H1581; 2.5 mg/kg i.p once a day,7.91%
same,TGI (%),NCI-H1581; 2.5 mg/kg i.p once a day,92.09%
same,T/C (%),NCI-H1581; 5 mg/kg i.p once a day,1.07%
same,TGI (%),NCI-H1581; 5 mg/kg i.p once a day,98.93%
same,T/C (%),AN3-CA,1.37%
same,TGI (%),AN3-CA,98.63%
